Test results from publication PMC6451126 (2019).

What was measured:
[1] = test system: KRAS (DNA, G4) AGGGCGGTGTGGGAAGAGGGAAGAGGGGGAGG; experiment: RLS intensity ratio; Job plot; settings: 50 mM KCl; 20 mM Tris-HCl pH 7.4, 1 mM Na2EDTA, 5 µM porphyrin
[2] = test system: Oxy28 (DNA, G4) GGGGTTTTGGGGTTTTGGGGTTTTGGGG; experiment: RLS intensity ratio; settings: 50 mM KCl; 20 mM Tris-HCl pH 7.0, 1 mM Na2EDTA, 5 µM porphyrin, 10 µM DNA
[3] = test system: Hum24 (DNA, G4) TTAGGGTTAGGGTTAGGGTTAGGG; experiment: RLS intensity ratio; settings: 50 mM KCl; 20 mM Tris-HCl pH 7.0, 1 mM Na2EDTA, 5 µM porphyrin, 10 µM DNA
[4] = test system: KRAS (DNA, G4) AGGGCGGTGTGGGAAGAGGGAAGAGGGGGAGG; experiment: RLS ratio I702/I652, absorption, fluorescence; Job plot; settings: 50 mM KCl; 20 mM Tris-HCl pH 7.0, 1 mM Na2EDTA, 5 µM porphyrin
[5] = test system: AS1411 (DNA, G4) GGTGGTGGTGGTTGTGGTGGTGGTGG; experiment: RLS intensity ratio; settings: 50 mM KCl; 20 mM Tris-HCl pH 7.0, 1 mM Na2EDTA, 5 µM porphyrin, 10 µM DNA
[6] = test system: C-MYC (DNA, G4) TGAGGGTGGGGAGGGTGGGGAA; experiment: RLS intensity ratio; settings: 50 mM KCl; 20 mM Tris-HCl pH 7.0, 1 mM Na2EDTA, 5 µM porphyrin, 10 µM DNA
[7] = test system: CatG4 (DNA, G4) TGGGTAGGGCGGGTTGGG; experiment: RLS intensity ratio; settings: 50 mM KCl; 20 mM Tris-HCl pH 7.0, 1 mM Na2EDTA, 5 µM porphyrin, 10 µM DNA

Measured: binding

C[N+]1(CCO)CC[N+](C)(CCOc2ccc(-c3c4nc(c(-c5ccc(OCC[N+]6(C)CC[N+](C)(CCO)CC6)cc5)c5ccc([nH]5)c(-c5ccc(OCC[N+]6(C)CC[N+](C)(CCO)CC6)cc5)c5nc(c(-c6ccc(OCC[N+]7(C)CC[N+](C)(CCO)CC7)cc6)c6ccc3[nH]6)C=C5)C=C4)cc2)CC1 (stereo not shown)
yes: [1]

C[N+]1(CCOc2ccc(-c3c4nc(c(-c5ccc(OCC[N+]6(C)CCCCC6)cc5)c5ccc([nH]5)c(-c5ccc(OCC[N+]6(C)CCCCC6)cc5)c5nc(c(-c6ccc(OCC[N+]7(C)CCCCC7)cc6)c6ccc3[nH]6)C=C5)C=C4)cc2)CCCCC1
not listed: [1]
yes: all other assays above
